“Also recorded” adds a separate entry of the source. Where no end group is shown, it is not given here.
How the values were obtained:
CRFR1 = conditions: cited from earlier work
rCRFR1 [1] = target: T1, rCRFR1 (Rattus norvegicus, UniProt P35353); experiment: Competition binding scintillation proximity assay, rCRFR1 membranes; conditions: for selectivity for CRFR1: CRFR1 vs CRFR2, in words
T1 construct: expressed in transfected cells
T1 sequence (P35353 24-415): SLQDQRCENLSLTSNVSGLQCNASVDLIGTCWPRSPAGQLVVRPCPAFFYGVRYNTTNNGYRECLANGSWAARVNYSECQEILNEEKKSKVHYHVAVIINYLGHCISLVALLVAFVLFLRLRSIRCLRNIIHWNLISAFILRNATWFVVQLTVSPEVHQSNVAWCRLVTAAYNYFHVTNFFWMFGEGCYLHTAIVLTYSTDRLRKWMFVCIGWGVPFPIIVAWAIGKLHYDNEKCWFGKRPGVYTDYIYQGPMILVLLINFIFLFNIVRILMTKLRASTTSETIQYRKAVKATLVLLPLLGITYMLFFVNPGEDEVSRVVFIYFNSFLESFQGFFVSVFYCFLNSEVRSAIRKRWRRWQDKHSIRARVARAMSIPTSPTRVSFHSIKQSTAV
Description: (§1) Crude membrane fractions were prepared from human embryonic kidney (HEK) 293 cells stably expressing either cloned rat CRFR1α(rCRFR1) or mouse CRFR2β (mCRFR2β) as described (20). Rat CRFBP (rCRFBP) was produced in HEK 293 cells stably transfected with cDNA coding for rCRFBP C-terminally fused with a His6 sequence as described (36). The scintillation proximity assays (SPA) for binding analysis of CRFR and CRFBP have been already described in detail (21, 22). For competition binding assays of rCRFR1 and rCRFBP, [^125I-Tyr^0]h/rCRF was used as radiolabeled peptide, whereas [^125I-Tyr^0]Svg was employed for mCRFR2β.

rCRFR1 [2] = target: T1, rCRFR1; experiment: Agonist-induced intracellular cAMP accumulation in HEK 293 cells producing rCRFR1; assay type: cell-based; conditions: ratio of biological potencies (cAMP)
Description: The biological potency of cortagine and OCRF was evaluated by the determination of the EC50 values for agonist-induced intracellular accumulation of cAMP in HEK 293 cells producing either rCRFR1 or mCRFR2β.
The HEK 293 cells were plated into 24 well cell culture plates and stimulated as described (21) using increasing concentrations of the agonists under investigation. Intracellular cAMP was measured with the Biotrak™ cAMP [^125I] SPA system (Amersham Pharmacia Biotech) according to the manufacturer's product manual.

[3] = Maximum solubility in aCSF by amino acid analysis; assay type: physicochemical; conditions: aCSF, pH 7.4; read-out: maximal solubility cmax
Description: After dissolving the peptides in artificial cerebrospinal fluid (aCSF; 124 mM NaCl, 26.4 mM NaHCO3, 10 mM glucose, 3.3 mM KCl, 2.5 mM CaCl2 , 2.4 mM MgSO4 , 1.2 mM KH2PO4) at pH=7.4, the maximum solubility cmax was determined by amino acid analysis as described (21). The isoelectric point of the peptides was determined by isoelectric focusing (IEF) as described (21) with a Bio-Rad IEF cell system using Bio-Rad IEF strips in the pH range 3-10.

[4] = assay type: physicochemical
Description: A high solubility under physiological conditions is a crucial prerequisite especially for compounds to be injected into the rodent brain. […] Both peptides were soluble in a concentration range of up to 1000 μM (FIG. 6), so that there was no limitation in view of the agonist doses typically used in behavioral experiments. […] Consequently, solutions of cortagine to be used in the pharmacological assays were prepared in phosphate buffered saline (PBS; pH=7.4).

mCRFR2β = target: T2, mCRFR2β (Mus musculus, UniProt Q60748); experiment: Competition binding scintillation proximity assay, mCRFR2β membranes; conditions: for affinity for CRFR2: binding analysis, in words
T2 construct: expressed in transfected cells
T2 sequence (Q60748 1-431 isoform Q60748-2): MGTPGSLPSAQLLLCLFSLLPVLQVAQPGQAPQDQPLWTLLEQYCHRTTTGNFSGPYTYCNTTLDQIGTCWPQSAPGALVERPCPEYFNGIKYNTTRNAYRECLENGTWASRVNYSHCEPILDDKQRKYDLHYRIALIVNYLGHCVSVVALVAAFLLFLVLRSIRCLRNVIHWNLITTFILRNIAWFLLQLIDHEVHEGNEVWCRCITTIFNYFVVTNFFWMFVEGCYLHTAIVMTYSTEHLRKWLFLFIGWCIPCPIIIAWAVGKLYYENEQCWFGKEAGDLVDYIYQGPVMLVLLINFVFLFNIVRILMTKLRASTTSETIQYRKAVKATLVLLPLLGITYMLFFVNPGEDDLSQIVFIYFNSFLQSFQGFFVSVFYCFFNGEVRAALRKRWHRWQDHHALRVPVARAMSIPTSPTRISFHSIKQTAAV
Description: as §1

rCRFBP = target: T3, rCRFBP (Rattus norvegicus, UniProt P24388); experiment: Competition binding scintillation proximity assay, rCRFBP; conditions: binding analysis, in words
T3 construct: His6 (C); made in house; host or cells: HEK 293 cells, stably transfected
T3 sequence (P24388 25-322): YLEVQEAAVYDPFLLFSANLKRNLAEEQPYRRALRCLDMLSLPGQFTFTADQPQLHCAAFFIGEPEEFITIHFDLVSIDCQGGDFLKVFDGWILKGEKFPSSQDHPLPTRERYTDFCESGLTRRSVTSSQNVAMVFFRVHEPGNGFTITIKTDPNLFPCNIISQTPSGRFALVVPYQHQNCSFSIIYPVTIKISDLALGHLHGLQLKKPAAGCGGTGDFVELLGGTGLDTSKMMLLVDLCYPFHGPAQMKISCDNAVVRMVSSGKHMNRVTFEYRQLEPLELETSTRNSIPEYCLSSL
Description: as §1

C57BL/6J mice = experiment: Elevated plus-maze test, intraseptal (i.s.) injection; assay type: in vivo, mouse; conditions: 400 ng aSvg-30 i.s. 15 min before oCRF
Description: Nine-week old male C57BL/6J (Centre D'Elevage Janvier, Sultzfeld, France) were individually housed in macrolon cages according to the recommendations of the Society for Laboratory Animal Science (Germany). All experiments were carried out in accordance with the European Council Directive (86/609/EEC) with the permission of the Animal Protection Law enforced by the District Government of Braunschweig, State of Lower Saxony, Germany, which is in full agreement with the APA ethical guidelines. All efforts were made to minimize animal suffering. The number of mice per group was 9-11.
All peptides were dissolved in aCSF except for the CRFR2-selective antagonist antisauvagine-30 (aSvg-30) (20) that was initially dissolved in 10 mM aqueous acetic acid and diluted with the same volume of two-fold concentrated aCSF. The final pH of the peptide solutions was 7.4. The exact peptide concentration of the injection solutions was determined by amino acid analysis with a Beckman HPLC analyzer system 6300. […]
The elevated plus-maze (EPM) behavior of C57BL/6J mice cannulated in the lateral ventricles or lateral intermediate septal area (23) was investigated 30 min after injection of the CRFR1 agonist under investigation for 5 min in the EPM test (24). […] The behavior of the mice was recorded by a video camera connected to a PC and analyzed by the Technical & Scientific Equipment software VIDEOMOT 2. […]

For `CCCCN(CC)c1nc(C)nc2c1c(C)cn2-c1c(C)cc(C)cc1C` [CP-154,526], the “locomotion in the EPM test” value (CRFR1) is listed as “nonspecific increase in locomotion”.

In the case of `CC[C@H](C)[C@H](NC(=O)[C@@H](NC(=O)[C@H](CC(=O)O)NC(=O)[C@H](CC(C)C)NC(=O)[C@H](CC(C)C)NC(=O)[C@H](CC(C)C)NC(=O)[C@H](CCCNC(=N)N)NC(=O)[C@H](CC(N)=O)NC(=O)[C@H](CC(N)=O)NC(=O)[C@H](C)NC(=O)[C@H](C)NC(=O)[C@H](CCC(N)=O)NC(=O)[C@H](CCC(N)=O)NC(=O)[C@H](CCCCN)NC(=O)[C@H](CCC(=O)O)NC(=O)[C@H](CCCCN)NC(=O)[C@H](CCC(=O)O)NC(=O)[C@H](CCC(N)=O)NC(=O)[C@H](CCCCN)NC(=O)[C@H](CCC(=O)O)NC(=O)[C@@H](NC(=O)[C@H](CCC(=O)O)NC(=O)[C@@H](NC(=O)[C@H](CCSC)NC(=O)[C@H](CCCCN)NC(=O)[C@H](CCCNC(=N)N)NC(=O)[C@H](CC(C)C)NC(=O)[C@H](CC(C)C)NC(=O)[C@H](CCC(=O)O)NC(=O)[C@H](CC(C)C)NC(=O)[C@H](CO)NC(=O)[C@H](CC(C)C)NC(=O)[C@H](CC(=O)O)NC(=O)[C@@H](NC(=O)[C@H](CO)NC(=O)[C@@H](NC(=O)[C@@H]1CCCN1C(=O)[C@@H]1CCCN1C(=O)CNC(=O)[C@@H]1CCC(=O)N1)[C@@H](C)CC)[C@@H](C)CC)[C@@H](C)CC)[C@@H](C)CC)[C@@H](C)O)C(N)=O` [Svg, sauvagine, reference compound], the “selectivity for CRFR1” value (rCRFR1 [1]; binding analysis) is reported as “non-selective”.

With `CC[C@H](C)[C@H](NC(=O)[C@H](CC(=O)O)NC(=O)[C@H](CC(C)C)NC(=O)[C@H](CC(C)C)NC(=O)[C@H](CCCCN)NC(=O)[C@H](CCCNC(=N)N)NC(=O)[C@H](CC(N)=O)NC(=O)[C@H](CO)NC(=O)[C@H](Cc1c[nH]cn1)NC(=O)[C@H](C)NC(=O)[C@H](CCC(N)=O)NC(=O)[C@H](CCC(N)=O)NC(=O)[C@H](C)NC(=O)[C@H](CC(C)C)NC(=O)[C@H](CCC(N)=O)NC(=O)[C@H](CC(=O)O)NC(=O)[C@H](C)NC(=O)[C@H](CCCCN)NC(=O)[C@@H](NC(=O)[C@H](CCSC)NC(=O)[C@H](CCC(=O)O)NC(=O)[C@H](CC(C)C)NC(=O)[C@@H](NC(=O)[C@H](CCC(=O)O)NC(=O)[C@H](CCCNC(=N)N)NC(=O)[C@H](CC(C)C)NC(=O)[C@H](CC(C)C)NC(=O)[C@H](Cc1c[nH]cn1)NC(=O)[C@H](Cc1ccccc1)NC(=O)[C@@H](NC(=O)[C@H](CC(C)C)NC(=O)[C@H](CC(=O)O)NC(=O)[C@H](CC(C)C)NC(=O)[C@H](CO)NC(=O)[C@@H](NC(=O)[C@@H]1CCCN1C(=O)[C@@H]1CCCN1C(=O)[C@H](CCC(=O)O)NC(=O)[C@H](CCC(N)=O)NC(=O)[C@@H](N)CO)[C@@H](C)CC)[C@@H](C)O)C(C)C)[C@@H](C)O)C(=O)N[C@@H](C)C(N)=O` [oCRF, ovine CRF, reference compound] the “CRFR1-selectivity over CRFR2β, IC50(mCRFR2)/IC50(rCRFR1)” value (rCRFR1 [1]; ratio of binding affinities) was 89, the “CRFR1-selectivity over CRFR2β, EC50(mCRFR2)/EC50(rCRFR1)” value (rCRFR1 [2]) was 19 and the solubility [3] was at most 1000 µM. The “solubility in 10 mM aqueous acetic acid” value [4] was “soluble in 10 mM aqueous acetic acid”.

With “[Ala^40] [Svg^1-12]x[h/rCRF^14-30]x[Svg^30-40] [compound 8]” the “selectivity for CRFR1” value (rCRFR1 [1]; binding analysis) was “highly selective for CRFR1”, the “change in affinity to CRFR1 in comparison to parent peptide” value (rCRFR1 [1]; compound 8 vs compound 6, compound 9 vs compound 8, Nle20 analog vs compound 9) was “more than five-fold increase” and the “change in affinity for CRFR2 in comparison to parent peptide” value (mCRFR2β; compound 8 vs compound 6, compound 9 vs compound 8) was “only a slight increase”. For the same compound, the “affinity to CRFBP” value (rCRFBP) was “high affinity”.

For “[Ala^41]h/rCRF (SEEPPISLDLTFHLLREVLEMARAEQLAQQAHSNRKLMEIA; ends and bridges not checked; UniProt P06850 154-194, looked up, variant I41A) [h/rCRF analog with Ala in position 41]”, the “selectivity for CRFR1 in comparison to h/rCRF” value (rCRFR1 [1]; binding analysis) was “increase in CRFR1 selectivity by a factor of three”.

In the case of “[Svg^1-12 ]x[h/rCRF^14-30]x[Svg^30-40] (QGPPISIDLSLELLREVLEMARAEQLAQQAANNRLLLDTI; not fully specified (residue 1); ends and bridges not checked) [compound 6]”, the “selectivity for CRFR1” value (rCRFR1 [1]; binding analysis) is reported as “selective for CRFR1” and the “affinity for CRFR2” value (mCRFR2β) is reported as “low affinity to CRFR2”.

For “[Svg^1-29]x[h/rCRF^31-41] (QGPPISIDLSLELLRKMIEIEKQEKEKQQAHSNRKLMEII; ends and bridges not checked) [compound 7, chimeric peptide of h/rCRF and Svg domains]”, the “selectivity for CRFR1” value (rCRFR1 [1]; binding analysis) was “not”.

With “[h/rCRF^1-13]x[Svg^13-29]x[h/rCRF^31-41] (SEEPPISLDLTFHLLRKMIEIEKQEKEKQQAHSNRKLMEII; ends and bridges not checked) [compound 4, chimeric peptide of h/rCRF and Svg domains]” the “selectivity for CRFR1” value (rCRFR1 [1]; binding analysis) was “not” and the “affinity for CRFR2” value (mCRFR2β) was “not”.

With “[h/rCRF^1-30]x[Svg^30-40] (SEEPPISLDLTFHLLREVLEMARAEQLAQQAANNRLLLDTI; ends and bridges not checked) [compound 5, chimeric peptide of h/rCRF and Svg domains]” the “selectivity for CRFR1” value (rCRFR1 [1]; binding analysis) was “clear selectivity for CRFR1” and the “affinity for CRFR2” value (mCRFR2β) was “low affinity”.

In the case of anti-sauvagine-30 [aSvg-30], the “antagonism of anxiogenic effects of 100 ng oCRF” value (C57BL/6J mice) is reported as “completely prevented; also recorded: fully antagonized”.

— patent US20080221021A1, “Novel Corticotropin-Releasing Factor Receptor 1 (Crfr1) Agonist” (Max-Planck-Gesellschaft Zur Forderung Der, priority 2004, published 2008)
